According to the NIST ThermoML archive (doi:10.1021/je300280s):
“And” between values parts separate entries of the source, which are not always exact repeats. Equal entries are not always repeated. Numbers after ± are expanded uncertainties.

Key:
[1] = excess molar enthalpy (molar enthalpy of mixing); xn = mol fraction of the nth substance listed; conditions: 101.3 kPa, Liquid, Flow calorimetry
[2] = xn = mol fraction of the nth substance listed; conditions: 288.15 K; 101.3 kPa; Liquid; Vibrating tube method; x1 = 0.000935

Which results are given for `CCCOC(C)=O` [propyl ethanoate] + O?
excess molar enthalpy ([1]; 288.15 K, x1 = 0.000935): -0.00273 ± 0.000206 kcal/mol; excess molar enthalpy ([1]; 288.15 K, x1 = 0.001246): -0.00364 ± 0.000213 kcal/mol; excess molar enthalpy ([1]; 288.15 K, x1 = 0.001248): -0.00363 ± 0.000213 kcal/mol; excess molar enthalpy ([1]; 288.15 K, x1 = 0.001558): -0.00452 ± 0.00022 kcal/mol; excess molar enthalpy ([1]; 288.15 K, x1 = 0.00156): -0.00446 ± 0.00022 kcal/mol; excess molar enthalpy ([1]; 288.15 K, x1 = 0.001869): -0.00535 ± 0.000227 kcal/mol; excess molar enthalpy ([1]; 288.15 K, x1 = 0.001871): -0.00534 ± 0.000227 kcal/mol; excess molar enthalpy ([1]; 288.15 K, x1 = 0.00218): -0.0062 ± 0.000234 kcal/mol; excess molar enthalpy ([1]; 288.15 K, x1 = 0.002182): -0.00616 ± 0.000232 kcal/mol; excess molar enthalpy ([1]; 288.15 K, x1 = 0.002491): -0.00703 ± 0.000239 kcal/mol; excess molar enthalpy ([1]; 288.15 K, x1 = 0.002494): -0.00708 ± 0.000239 kcal/mol; excess molar enthalpy ([1]; 298.15 K, x1 = 0.000935): -0.00206 ± 0.000201 kcal/mol; excess molar enthalpy ([1]; 298.15 K, x1 = 0.000936): -0.0021 ± 0.000201 kcal/mol; excess molar enthalpy ([1]; 298.15 K, x1 = 0.000937): -0.00212 ± 0.000201 kcal/mol; excess molar enthalpy ([1]; 298.15 K, x1 = 0.001247): -0.00274 ± 0.000206 kcal/mol; excess molar enthalpy ([1]; 298.15 K, x1 = 0.001248): -0.00277 ± 0.000206 kcal/mol; excess molar enthalpy ([1]; 298.15 K, x1 = 0.001249): -0.00278 ± 0.000206 kcal/mol; excess molar enthalpy ([1]; 298.15 K, x1 = 0.001558): -0.00347 ± 0.000213 kcal/mol; excess molar enthalpy ([1]; 298.15 K, x1 = 0.00156): -0.00342 kcal/mol and -0.00343 kcal/mol; excess molar enthalpy ([1]; 298.15 K, x1 = 0.001869): -0.00404 ± 0.000217 kcal/mol; excess molar enthalpy ([1]; 298.15 K, x1 = 0.001871): -0.00407 ± 0.000217 kcal/mol; excess molar enthalpy ([1]; 298.15 K, x1 = 0.001872): -0.00405 ± 0.000217 kcal/mol; excess molar enthalpy ([1]; 298.15 K, x1 = 0.002181): -0.00472 ± 0.000222 kcal/mol; excess molar enthalpy ([1]; 298.15 K, x1 = 0.002183): -0.00466 kcal/mol and -0.00472 kcal/mol; excess molar enthalpy ([1]; 298.15 K, x1 = 0.002492): -0.00539 ± 0.000227 kcal/mol; excess molar enthalpy ([1]; 308.15 K, x1 = 0.000936): -0.00148 kcal/mol and -0.00147 kcal/mol; excess molar enthalpy ([1]; 308.15 K, x1 = 0.001247): -0.00196 kcal/mol and -0.00197 kcal/mol; excess molar enthalpy ([1]; 308.15 K, x1 = 0.001559): -0.00245 kcal/mol and -0.00244 kcal/mol; excess molar enthalpy ([1]; 308.15 K, x1 = 0.00187): -0.00286 kcal/mol and -0.00292 kcal/mol; excess molar enthalpy ([1]; 308.15 K, x1 = 0.002181): -0.00332 kcal/mol and -0.00334 kcal/mol; excess molar enthalpy ([1]; 308.15 K, x1 = 0.002492): -0.0037 kcal/mol and -0.00371 kcal/mol; excess molar enthalpy ([1]; 318.15 K, x1 = 0.000936): -0.000911 ± 0.000191 kcal/mol; excess molar enthalpy ([1]; 318.15 K, x1 = 0.000937): -0.000932 ± 0.000191 kcal/mol; excess molar enthalpy ([1]; 318.15 K, x1 = 0.001247): -0.00119 ± 0.000194 kcal/mol; excess molar enthalpy ([1]; 318.15 K, x1 = 0.001248): -0.00122 ± 0.000194 kcal/mol; excess molar enthalpy ([1]; 318.15 K, x1 = 0.001559): -0.00148 ± 0.000196 kcal/mol; excess molar enthalpy ([1]; 318.15 K, x1 = 0.001561): -0.00148 ± 0.000196 kcal/mol; excess molar enthalpy ([1]; 318.15 K, x1 = 0.00187): -0.00175 ± 0.000198 kcal/mol; excess molar enthalpy ([1]; 318.15 K, x1 = 0.001873): -0.00172 ± 0.000198 kcal/mol; excess molar enthalpy ([1]; 318.15 K, x1 = 0.002182): -0.00201 ± 0.000201 kcal/mol; excess molar enthalpy ([1]; 318.15 K, x1 = 0.002184): -0.00198 ± 0.000201 kcal/mol; excess molar enthalpy ([1]; 318.15 K, x1 = 0.002493): -0.00221 ± 0.000203 kcal/mol; excess molar enthalpy ([1]; 318.15 K, x1 = 0.002496): -0.00221 ± 0.000203 kcal/mol; mass density [2]: 999.019 ± 0.033 kg/m3
